Test results as given in patent publication US20180200257A1, “METHODS FOR THE TREATMENT OF INFLAMMATORY DISORDERS” (Galapagos NV, priority 2015, published 2018).

Test system: subjects with moderately to severely active RA who have an inadequate response to methotrexate (MTX)
Assay: Study 2 (monotherapy) - Creatinine levels
Type: in vivo, human
Source text: Randomized, double-blind, placebo-controlled, multicenter, phase IIb dose finding study of Compound 1 (dosed as a [Compound 1:HCl:3H2O]) administered for 24 weeks as monotherapy to subjects with moderately to severely active rheumatoid arthritis who have an inadequate response to methotrexate alone
Double-blind, placebo-controlled, monotherapy study in subjects with moderately to severely active RA who have an inadequate response to methotrexate (MTX) (oral or parenteral).
280 subjects randomized to one of 3 doses of Compound 1 (dosed as a [Compound 1:HCl:3H2O]) or to placebo, given once daily (q.d.).
Twelve weeks of treatment with Compound 1 (dosed as a [Compound 1:HCl:3H2O]) at 50 mg, 100 mg, or 200 mg q.d.; or placebo. At Week 12, all subjects on placebo and the subjects on the 50 mg dose who have not achieved 20% improvement in swollen joint count (SJC66) and tender joint count (TJC68) will be assigned to 100 mg q.d. in a blinded fashion and will continue treatment until Week 24. Subjects in the other groups will maintain their randomized treatment until Week 24.
Creatinine levels determination is available at Quest Diagnostics, Clinical Trials, Quest House, 125-135 Staines Road, Hounslow, Middlesex, TW3 3JB, United Kingdom under Catalogue n# 82565. For Study 3, the data are obtained at BARC Europe, 3B,Industrie Park, Zwijnaarde, B-9052 Ghent, Belgium.
The Enzymatic method is based on the determination of sarcosine after conversion of creatinine with the aid of creatininase, creatinase, and sarcosine oxidase. The liberated hydrogen peroxide reacts with 4-aminophenazone and HTIB to form a quinone imine chromogen. The reaction is catalyzed by peroxidase. The color intensity is directly proportional to concentration of creatinine present and can be measured photometrically.
Subjects in the other groups maintained their randomized treatment until Week 24.

[1] = 50 mg q.d. non responders switching to 100 mg q.d. at week 12 (N = 15), week 0
[2] = 50 mg q.d. non responders switching to 100 mg q.d. at week 12 (N = 15), week 1
[3] = 50 mg q.d. non responders switching to 100 mg q.d. at week 12 (N = 15), week 2
[4] = 50 mg q.d. non responders switching to 100 mg q.d. at week 12 (N = 15), week 4
[5] = 50 mg q.d. non responders switching to 100 mg q.d. at week 12 (N = 15), week 8
[6] = 50 mg q.d. non responders switching to 100 mg q.d. at week 12 (N = 15), week 12
[7] = 50 mg q.d. non responders switching to 100 mg q.d. at week 12 (N = 15), week 16
[8] = 50 mg q.d. non responders switching to 100 mg q.d. at week 12 (N = 15), week 20
[9] = 50 mg q.d. non responders switching to 100 mg q.d. at week 12 (N = 15), week 24
[10] = 50 mg q.d. responders (N = 57), week 0
[11] = 50 mg q.d. responders (N = 57), week 1
[12] = 50 mg q.d. responders (N = 57), week 2
[13] = 50 mg q.d. responders (N = 57), week 4
[14] = 50 mg q.d. responders (N = 57), week 8
[15] = 50 mg q.d. responders (N = 57), week 12
[16] = 50 mg q.d. responders (N = 57), week 16
[17] = 50 mg q.d. responders (N = 57), week 20
[18] = 50 mg q.d. responders (N = 57), week 24
[19] = 100 mg q.d. (N = 70), 24 weeks results, week 0
[20] = 100 mg q.d. (N = 70), 24 weeks results, week 1
[21] = 100 mg q.d. (N = 70), 24 weeks results, week 2
[22] = 100 mg q.d. (N = 70), 24 weeks results, week 4
[23] = 100 mg q.d. (N = 70), 24 weeks results, week 8
[24] = 100 mg q.d. (N = 70), 24 weeks results, week 12
[25] = 100 mg q.d. (N = 70), 24 weeks results, week 16
[26] = 100 mg q.d. (N = 70), 24 weeks results, week 20
[27] = 100 mg q.d. (N = 70), 24 weeks results, week 24
[28] = 200 mg q.d. (N = 69), 24 weeks results, week 0
[29] = 200 mg q.d. (N = 69), 24 weeks results, week 1
[30] = 200 mg q.d. (N = 69), 24 weeks results, week 2
[31] = 200 mg q.d. (N = 69), 24 weeks results, week 4
[32] = 200 mg q.d. (N = 69), 24 weeks results, week 8
[33] = 200 mg q.d. (N = 69), 24 weeks results, week 12
[34] = 200 mg q.d. (N = 69), 24 weeks results, week 16
[35] = 200 mg q.d. (N = 69), 24 weeks results, week 20
[36] = 200 mg q.d. (N = 69), 24 weeks results, week 24
[37] = placebo switching to 100 mg q.d. at week 12 (N = 72), week 16
[38] = placebo switching to 100 mg q.d. at week 12 (N = 72), week 20
[39] = placebo switching to 100 mg q.d. at week 12 (N = 72), week 24

Compound: O=C(Nc1nc2cccc(-c3ccc(CN4CCS(=O)(=O)CC4)cc3)n2n1)C1CC1 [Compound 1, cyclopropanecarboxylic acid {5-[4-(1,1-dioxo-thiomorpholin-4-ylmethyl)-phenyl]-[1,2,4]triazolo[1,5-a]pyridin-2-yl}-amide]
- Creatinine Mean CFB (50 mg q.d. (N = 72), week 0): 0.00 µmol/L
- Creatinine Mean percentage CFB (50 mg q.d. (N = 72), week 0): 0.00%
- Creatinine Mean CFB (50 mg q.d. (N = 72), week 1): 0.42 µmol/L
- Creatinine Mean percentage CFB (50 mg q.d. (N = 72), week 1): 1.10%
- Creatinine Mean CFB (50 mg q.d. (N = 72), week 2): 1.25 µmol/L
- Creatinine Mean percentage CFB (50 mg q.d. (N = 72), week 2): 2.59%
- Creatinine Mean CFB (50 mg q.d. (N = 72), week 4): 1.32 µmol/L
- Creatinine Mean percentage CFB (50 mg q.d. (N = 72), week 4): 3.01%
- Creatinine Mean CFB (50 mg q.d. (N = 72), week 8): 2.20 µmol/L
- Creatinine Mean percentage CFB (50 mg q.d. (N = 72), week 8): 4.34%
- Creatinine Mean CFB (50 mg q.d. (N = 72), week 12): 3.16 µmol/L
- Creatinine Mean percentage CFB (50 mg q.d. (N = 72), week 12): 6.02%
- Creatinine Mean CFB [1]: 0.0 µmol/L
- Creatinine Mean percentage CFB [1]: 0.00%
- Creatinine Mean CFB [2]: 1.1 µmol/L
- Creatinine Mean percentage CFB [2]: 2.03%
- Creatinine Mean CFB [3]: 2.0 µmol/L
- Creatinine Mean percentage CFB [3]: 3.77%
- Creatinine Mean CFB [4]: 0.6 µmol/L
- Creatinine Mean percentage CFB [4]: 1.58%
- Creatinine Mean CFB [5]: 6.2 µmol/L
- Creatinine Mean percentage CFB [5]: 10.36%
- Creatinine Mean CFB [6]: 0.0 µmol/L
- Creatinine Mean percentage CFB [6]: 0.74%
- Creatinine Mean CFB [7]: 5.9 µmol/L
- Creatinine Mean percentage CFB [7]: 11.14%
- Creatinine Mean CFB [8]: 4.5 µmol/L
- Creatinine Mean percentage CFB [8]: 8.07%
- Creatinine Mean CFB [9]: 5.2 µmol/L
- Creatinine Mean percentage CFB [9]: 9.28%
- Creatinine Mean CFB [10]: 0.0 µmol/L
- Creatinine Mean percentage CFB [10]: 0.00%
- Creatinine Mean CFB [11]: 0.2 µmol/L
- Creatinine Mean percentage CFB [11]: 0.86%
- Creatinine Mean CFB [12]: 1.0 µmol/L
- Creatinine Mean percentage CFB [12]: 2.27%
- Creatinine Mean CFB [13]: 1.5 µmol/L
- Creatinine Mean percentage CFB [13]: 3.40%
- Creatinine Mean CFB [14]: 1.1 µmol/L
- Creatinine Mean percentage CFB [14]: 2.67%
- Creatinine Mean CFB [15]: 4.0 µmol/L
- Creatinine Mean percentage CFB [15]: 7.51%
- Creatinine Mean CFB [16]: 1.9 µmol/L
- Creatinine Mean percentage CFB [16]: 3.91%
- Creatinine Mean CFB [17]: 3.6 µmol/L
- Creatinine Mean percentage CFB [17]: 7.19%
- Creatinine Mean CFB [18]: 1.6 µmol/L
- Creatinine Mean percentage CFB [18]: 3.16%
- Creatinine Mean CFB [19]: 0.0 µmol/L
- Creatinine Mean percentage CFB [19]: 0.00%
- Creatinine Mean CFB [20]: 1.2 µmol/L
- Creatinine Mean percentage CFB [20]: 3.00%
- Creatinine Mean CFB [21]: 1.5 µmol/L
- Creatinine Mean percentage CFB [21]: 3.21%
- Creatinine Mean CFB [22]: 1.1 µmol/L
- Creatinine Mean percentage CFB [22]: 3.23%
- Creatinine Mean CFB [23]: 3.2 µmol/L
- Creatinine Mean percentage CFB [23]: 5.79%
- Creatinine Mean CFB [24]: 1.7 µmol/L
- Creatinine Mean percentage CFB [24]: 3.96%
- Creatinine Mean CFB [25]: 2.9 µmol/L
- Creatinine Mean percentage CFB [25]: 6.44%
- Creatinine Mean CFB [26]: 2.3 µmol/L
- Creatinine Mean percentage CFB [26]: 4.63%
- Creatinine Mean CFB [27]: 2.0 µmol/L
- Creatinine Mean percentage CFB [27]: 4.17%
- Creatinine Mean CFB (100 mg q.d. (N = 70), week 0): 0.00 µmol/L
- Creatinine Mean percentage CFB (100 mg q.d. (N = 70), week 0): 0.00%
- Creatinine Mean CFB (100 mg q.d. (N = 70), week 1): 1.19 µmol/L
- Creatinine Mean percentage CFB (100 mg q.d. (N = 70), week 1): 3.00%
- Creatinine Mean CFB (100 mg q.d. (N = 70), week 2): 1.48 µmol/L
- Creatinine Mean percentage CFB (100 mg q.d. (N = 70), week 2): 3.21%
- Creatinine Mean CFB (100 mg q.d. (N = 70), week 4): 1.10 µmol/L
- Creatinine Mean percentage CFB (100 mg q.d. (N = 70), week 4): 3.23%
- Creatinine Mean CFB (100 mg q.d. (N = 70), week 8): 3.19 µmol/L
- Creatinine Mean percentage CFB (100 mg q.d. (N = 70), week 8): 5.79%
- Creatinine Mean CFB (100 mg q.d. (N = 70), week 12): 1.75 µmol/L
- Creatinine Mean percentage CFB (100 mg q.d. (N = 70), week 12): 3.96%
- Creatinine Mean CFB [28]: 0.0 µmol/L
- Creatinine Mean percentage CFB [28]: 0.00%
- Creatinine Mean CFB [29]: 4.7 µmol/L
- Creatinine Mean percentage CFB [29]: 8.07%
- Creatinine Mean CFB [30]: 5.0 µmol/L
- Creatinine Mean percentage CFB [30]: 8.56%
- Creatinine Mean CFB [31]: 4.3 µmol/L
- Creatinine Mean percentage CFB [31]: 7.37%
- Creatinine Mean CFB [32]: 4.8 µmol/L
- Creatinine Mean percentage CFB [32]: 8.70%
- Creatinine Mean CFB [33]: 3.8 µmol/L
- Creatinine Mean percentage CFB [33]: 7.96%
- Creatinine Mean CFB [34]: 5.3 µmol/L
- Creatinine Mean percentage CFB [34]: 9.81%
- Creatinine Mean CFB [35]: 6.6 µmol/L
- Creatinine Mean percentage CFB [35]: 13.11%
- Creatinine Mean CFB [36]: 3.5 µmol/L
- Creatinine Mean percentage CFB [36]: 8.41%
- Creatinine Mean CFB (200 mg q.d. (N = 69), week 0): 0.00 µmol/L
- Creatinine Mean percentage CFB (200 mg q.d. (N = 69), week 0): 0.00%
- Creatinine Mean CFB (200 mg q.d. (N = 69), week 1): 4.68 µmol/L
- Creatinine Mean percentage CFB (200 mg q.d. (N = 69), week 1): 8.07%
- Creatinine Mean CFB (200 mg q.d. (N = 69), week 2): 4.99 µmol/L
- Creatinine Mean percentage CFB (200 mg q.d. (N = 69), week 2): 8.56%
- Creatinine Mean CFB (200 mg q.d. (N = 69), week 4): 4.28 µmol/L
- Creatinine Mean percentage CFB (200 mg q.d. (N = 69), week 4): 7.37%
- Creatinine Mean CFB (200 mg q.d. (N = 69), week 8): 4.82 µmol/L
- Creatinine Mean percentage CFB (200 mg q.d. (N = 69), week 8): 8.70%
- Creatinine Mean CFB (200 mg q.d. (N = 69), week 12): 3.80 µmol/L
- Creatinine Mean percentage CFB (200 mg q.d. (N = 69), week 12): 7.96%
- Creatinine Mean CFB [37]: 1.9 µmol/L
- Creatinine Mean percentage CFB [37]: 3.61%
- Creatinine Mean CFB [38]: 2.7 µmol/L
- Creatinine Mean percentage CFB [38]: 5.14%
- Creatinine Mean CFB [39]: 4.6 µmol/L
- Creatinine Mean percentage CFB [39]: 8.41%
